ChEMBL document CHEMBL1148069, “The punaglandins: 10-chloroprostanoids from the octocoral Telesto riisei” (J Nat Prod, 1994)
Calls of active or inactive are those of the source. No cut-off for these calls is given here.

Experiments:
[1] = system: L1210; test: Cytotoxicity against mouse L1210 cells; format: functional, cell-based
[2] = system: Ehrlich; test: Cytotoxicity against mouse EAC cells; format: functional, cell-based

Row | Structure (SMILES) | Activity [1] | Activity [2]
1 | CCCCC/C=C\C[C@@]1(O)C=C(Cl)C(=O)/C1=C/[C@H](OC(C)=O)[C@H](CCCC(=O)OC)OC(C)=O | Active | Active
2 | CC/C=C\C/C=C\C[C@@]1(O)C=C(Cl)C(=O)/C1=C/[C@H](OC(C)=O)[C@H](CCCC(=O)OC)OC(C)=O | Active | Active
